Experimental data taken from patent US20260125388A1 (priority 2022, published 2026).
≈ marks a conversion by molar mass, not a printed value. Like-named read-outs stand apart in the source and are kept apart here.

Experiments:
[1] = Aqueous solubility, shake flask in PBS buffer; type: physicochemical; settings: for Aqueous solubility: pH 7.2
Experimental: 5-50 mg of compound was added to 500 μL of PBS buffer at pH 7.4. The pH was adjusted if necessary, using a 1M NaOH solution. The solutions were vortexed for 10 s, sonicated for 2 min and agitated with a horizontal shaker in a closed vial for 24 h. The mixtures were transferred to an Eppendorf tube and centrifuged for 5 min at 16000×g followed by filtration through […] cellulose acetate spin X centrifuge filter (Costar). 200 μL of filtrate was transferred to a new Eppendorf tube and 200 μL of methanol was added and then subsequent dilution was made in 50:50 methanol/PBS buffer water if necessary. After mixing, 50 μL were transferred into a 384 well plate (Coring UV star, 781801) for UV detection at 250-600 nm (Tecan M1000). The assay was carried out with three independent samples of each compound. The concentration of each solution was determined with a calibration curve in 50:50 methanol/PBS buffer water. Absorbance of corresponding methanol PBS blank were recorded and subtracted from the absorbance of calibration curve solutions and from the samples.

[2] = test system: HEK293 cells; test: Cytotoxicity, CellTiter-Glo cell viability assay; type: cell-based, human; settings: for Cytotoxicity LD50: HEK293 cells, CellTiter-Glo, Table 3; for LD50 HEK293: human kidney cells, Table 2
Experimental: Compounds with increased cytotoxicity can be identified using an in vitro cytotoxicity assay. Therefore, human embryonic kidney 293T (HEK293T) cell lines were purchased (ATCC) and cultured in 75 cm2 flasks (CellStar). Cells were grown in DMEM/High Glucose (Hyclone, #SH3024301) media to which non-essential amino acids (Hyclone, #SH30238.01), 10 mM HEPES (Hyclone, #SH302237.01), 5×106 units of penicillin and streptomycin (Hyclone, #SV30010), and 10% of heat inactivated fetal bovine serum (Gibco, #10082147) were added. Cells were harvested using 0.05% Trypsin (Hyclone, #SH3023601). The cell viability assay was evaluated using CellTiter-Glo™ Luminescent Cell Viability Assay Kit (Promega, Madison, WI), which contains luciferase and all its substrate except ATP. The controls for the cytotoxicity assay used were (E)-10-(bromotriphenylphosphoranyl)decyl 4-(4-(tert-butyl)phenyl)-4-oxobut-2-enoate (400 μM in DMSO, positive control) and DMSO (negative control). All luminescence readings were performed on a Tecan Infinite M1000 plate reader. Small volume transfers were performed on the Tecan Freedom EVO liquid handling system with a 100 nL pin tool transfer (V&P Scientific). Serial dilutions were done in 96-well polypropylene plates (Coming, #3365) and assays were conducted in 384-well white optical bottom plates. The assays were carried out in quadruplet in three independent runs. The data were normalized to the controls and if possible analyzed by nonlinear regression (GraphPad Prism).

[3] = parallel artificial membrane permeation assay at pH 7.4
Experimental: The artificial membrane was prepared by carefully pipetting 15 μL of the 5% (v/v) hexadecane in hexane solution to each of the wells of the donor plate. The plate was placed into a fume hood for 1 h to ensure complete evaporation of the hexane. After the hexane had evaporated, 300 μL of PBS with 5% (v/v) DMSO was added to each of the wells of the acceptor plate. The hexadecane treated donor plate was then placed on top of the acceptor plate taking care that the underside of the membrane is completely in contact with the solution in each of the acceptor wells. […] The lid was placed on the plates and the entire plate sandwich was placed into a closed humid environment. The container was then placed on a reciprocal shaker for agitation at about 100 rpm. The time at the beginning of the incubation was recorded, as this is a thermodynamic-based assay. The incubation was then allowed to continue for 18 h. The donor plate was removed and 50 μL of the acceptor solution was transferred to the UV plate. Drug solutions at the theoretical equilibrium concentration (100 μM) was also prepared and transferred to the UV plate. The absorbance of the solutions in the UV plate was then scanned from 250-600 nm with 1 nm steps and a 5 nm bandwidth. Log Pe was calculated as follows (Equation 1).

[4] = test system: GABAA receptor; test: GABAA receptor binding, competition assay with [3H]-flunitrazepam and rat brain membranes; settings: for GABAAR binding, % inhibition at 10 μM: Table 3
Experimental: GABAA receptor binding: Rat brain membranes were prepared from frozen tissue that was thawed on ice and homogenized on ice in 10 volumes of cold lysis buffer (50 mM Tris HCl, pH 7.4, containing protease inhibitor cocktail from Roche) using a Polytron homogenizer (6 pulses and 10 seconds per pulse). The homogenate was centrifuged at 1,000×g for 10 min at 4° C. to obtain the supernatant. The supernatant was then centrifuged at 40,000×g for 20 min, and the resulting supernatant decanted and replaced with the same ice-cold lysis buffer. Two or three additional rounds of homogenization-centrifugation were performed to ensure thorough homogenization and also to wash out endogenous ligands. The final pellet was resuspended in the same buffer and homogenized one last time. […] Total binding and nonspecific binding were determined with reference compound clonazepam. […] Scintillation cocktail is then melted onto the microwave-dried filters on a hot plate and radioactivity counted in a Microbeta counter. The data (n=6) were analyzed by nonlinear regression.

[5] = 3H-flunitrazepam, rat brain extract
[6] = read-out: GABAAR binding (IC50), value in brackets, 3H-flunitrazepam, rat brain extract, Table 3, unit inferred
[7] = [3H]-flunitrazepam, rat brain, Table 1

| SMILES | Aqueous solubility [1] [µM] | Cytotoxicity LD50 [2] [µM] | Permeability (log Pe (cm/s)) [3] [cm/s] | GABAAR binding, % inhibition at 10 μM [4, 5] | IC50 [4, 6] [nM] | Aqueous solubility (footnote b: mM) ([1]; pH 7.2, cells marked b) | LD50 HEK293 [2] [µM] | % Inhibition at 10 μM [4, 7] [%] | solubility at 24 h ([1]; PBS buffer, aqueous buffer, thermodynamic from solid, pH 7.2, cells marked b, read-out: Aqueous solubility (footnote b: mM)) [mM] | IC50 [4, 7] [nM] |
| --- | --- | --- | --- | --- | --- | --- | --- | --- | --- | --- |
| O=C1Nc2ccc(Br)cc2C(c2ccccc2F)=NC12CC2 [Compound 2] | 321 ± 19 | >150 | −5.6 ± 0.05 | 97% | 42 |  |  |  |  |  |
| O=C1Nc2ccc(Cl)cc2C(c2ccccc2F)=NC12CC2 [Compound 6] | 39 ± 3 | >150 | −5.2 ± 0.15 | 90% | 665 |  |  |  |  |  |
| CC1(C)N=C(c2ccccc2F)c2cc(Br)ccc2NC1=O [Compound 8] | 319 ± 24 | >150 | −5.7 ± 0.01 | 70% | 1250 |  |  |  |  |  |
| CCOC(=O)c1ncn2c1C1(CC1)N=C(c1ccccc1F)c1cc(Br)ccc1-2 [Compound 9] | 141 ± 20 | >120 | −5.1 ± 0.10 | 94% | 87 |  |  |  |  |  |
| CCOC(=O)c1ncn2c1C1(CCC1)N=C(c1ccccc1F)c1cc(Br)ccc1-2 [Compound 11] | 144 ± 7 | 106 ± 9 | −5.8 ± 0.10 | 19 (n.d.) % |  |  |  |  |  |  |
| CCOC(=O)c1ncn2c1C1(CCCC1)N=C(c1ccccc1F)c1cc(Br)ccc1-2 [Compound 12] | 141 ± 19 | 96 ± 11 | −6.0 ± 0.06 | 74% | 6220 |  |  |  |  |  |
| CCOC(=O)c1ncn2c1C1(CCCCC1)N=C(c1ccccc1F)c1cc(Br)ccc1-2 [Compound 13] | 54 ± 2 | >150 | −5.6 ± 0.04 | 34 (n.d.) % |  |  |  |  |  |  |
| CCOC(=O)c1ncn2c1C(C)(C)N=C(c1ccccc1F)c1cc(Br)ccc1-2 [Compound 15] | 103 ± 5 | >150 | −6.0 ± 0.12 | 78% | 733 |  |  |  |  |  |
| C#Cc1ccc2c(c1)C(c1ccccc1F)=NC1(CC1)c1c(C(=O)O)ncn1-2 [Compound 20, 8-ethynyl-6-(2-fluorophenyl)spiro[benzo[f]imidazo[1,5-a][1,4]diazepine-4,1′-cyclopropane]-3-carboxylic acid] |  | >300 | −6.7 ± 0.12 | 55% | 59 | 40.3 ± 0.5 ^b mM | >400 |  |  |  |
| C#Cc1ccc2c(c1)C(c1ccccc1F)=NC1(CCCC1)c1c(C(=O)O)ncn1-2 [Compound 21, 8-ethynyl-6-(2-fluorophenyl)spiro[benzo[f]imidazo[1,5-a][1,4]diazepine-4,1′-cyclopentane]-3-carboxylic acid] |  |  |  |  |  |  | >400 | 0 |  |  |
| O=C(O)c1ncn2c1C1(CC1)N=C(c1ccccc1F)c1cc(C3CC3)ccc1-2 [Compound 24, 8-cyclopropyl-6-(2-fluorophenyl)spiro[benzo[f]imidazo[1,5-a][1,4]diazepine-4,1′-cyclopropane]-3-carboxylic acid] |  | >300 | −6.4 ± 0.04 | 58% | 1830 | 12.8 ± 0.1 ^b mM | >400 |  |  |  |
| O=C(O)c1ncn2c1C1(CCCC1)N=C(c1ccccc1F)c1cc(C3CC3)ccc1-2 [Compound 25, 8-cyclopropyl-6-(2-fluorophenyl)spiro[benzo[f]imidazo[1,5-a][1,4]diazepine-4,1′-cyclopentane]-3-carboxylic acid] |  |  |  |  |  |  | >400 | 31.4 |  |  |
| O=C(O)c1ncn2c1C1(CC1)N=C(c1ccccc1F)c1cc(Br)ccc1-2 [Compound 26, 8-bromo-6-(2-fluorophenyl)spiro[benzo[f]imidazo[1,5-a][1,4]diazepine-4,1′-cyclopropane]-3-carboxylic acid] |  | >300 | −6.8 ± 0.09 | 97% | 9 |  | >400 | 97.0 | 8.2 (≈ 3500 µg/mL) | 9.1 |
| O=C(O)c1ncn2c1C1(CCC1)N=C(c1ccccc1F)c1cc(Br)ccc1-2 [Compound 27, 8-bromo-6-(2-fluorophenyl)spiro[benzo[f]imidazo[1,5-a][1,4]diazepine-4,1′-cyclobutane]-3-carboxylic acid] |  | >300 | −6.6 ± 0.10 | 59% | 1830 | 58.7 ± 4.4 ^b mM | >400 | 59.4 |  | 1830 |
| O=C(O)c1ncn2c1C1(CCCC1)N=C(c1ccccc1F)c1cc(Br)ccc1-2 [Compound 28, 8-bromo-6-(2-fluorophenyl)spiro[benzo[f]imidazo[1,5-a][1,4]diazepine-4,1′-cyclopentane]-3-carboxylic acid] |  | >300 | −6.7 ± 0.04 | 2 (n.d.) % |  | 46.7 ± 0.6 ^b mM | >400 | 23.8 |  |  |
| O=C(O)c1ncn2c1C1(CCCCC1)N=C(c1ccccc1F)c1cc(Br)ccc1-2 [Compound 29, 8-bromo-6-(2-fluorophenyl)spiro[benzo[f]imidazo[1,5-a][1,4]diazepine-4,1′-cyclohexane]-3-carboxylic acid] |  | >300 | −6.6 ± 0.10 | 24 (n.d.) % |  | 46.9 ± 1.3 ^b mM | >400 | 1.9 |  |  |
| O=C(O)c1ncn2c1C1(CCCC1)N=C(c1ccccc1F)c1cc(Cl)ccc1-2 [Compound 31, 8-chloro-6-(2-fluorophenyl)spiro[benzo[f]imidazo[1,5-a][1,4]diazepine-4,1′-cyclopentane]-3-carboxylic acid] |  |  |  |  |  |  | >400 | 47.8 |  |  |
| O=C(O)c1ncn2c1C1(CCCC1)N=C(c1ccccc1F)c1ccccc1-2 [Compound 33, 6-(2-fluorophenyl)spiro[benzo[f]imidazo[1,5-a][1,4]diazepine-4,1′-cyclopentane]-3-carboxylic acid] |  |  |  |  |  |  | >400 | 4.7 |  |  |
